# Laboratory results published in ChEMBL document CHEMBL1156027, “Identification of methysticin as a potent and non-toxic NF-kappaB inhibitor from kava, potentially responsible for kava's chemopreventive activity” (Bioorg Med Chem Lett, 2009).
# Activity calls are given as the source filed them. No cut-off for these calls is given here.
# What was measured:
# [1] = Inhibition of TNF-alpha-induced NF-kappaB expressed in human A549 cells treated 1 hr after TNFalpha challenge measured after 6 hrs by luciferase reporter gene assay; type: cell-based
# [2] = Hepatotoxicity against mouse Hepa-1c1c7 cells after 48 hrs by celltiter blue assay; type: toxicity, cell-based
# HL-60 = experiment: Toxicity against human HL60 cells after 48 hrs by celltiter blue assay; type: cell-based; settings: hl-60, 48 h
# A549 [3] = experiment: Inhibition of NF-kappaB expressed in human A549 cells assessed as suppression of TNF-alpha-induced IKKalpha level at 25 uM after 7 hrs by Western blotting; type: cell-based
# A549 [4] = experiment: Inhibition of NF-kappaB expressed in human A549 cells assessed as suppression of TNF-alpha-induced COX2 level at 25 uM after 7 hrs by Western blotting; type: cell-based
# A549 [5] = experiment: Inhibition of NF-kappaB expressed in human A549 cells assessed as prevention of TNF-alpha-induced IkappaBalpha degradation level at 25 uM after 7 hrs by Western blotting; type: cell-based
# A549 [6] = experiment: Inhibition of NF-kappaB expressed in human A549 cells assessed as suppression of TNF-alpha-induced p65 level at 25 uM after 7 hrs by Western blotting; type: cell-based
# CCRF-CEM = experiment: Toxicity against human CCRF-CEM cells after 48 hrs by celltiter blue assay; type: cell-based
# A549 [7] = experiment: […] against human A549 cells after 48 hrs by celltiter blue assay; type: toxicity, cell-based; settings: a549, 48 h
structure (smiles),measurement,setting,value
COc1cc(/C=C/c2ccccc2)oc(=O)c1 [DESMETHOXYYANGONIN],IC50,[1],33 mg/L
same,IC50 at 48 h,[2],173 mg/L
COC1=CC(=O)O[C@@H](CCc2ccccc2)C1 [DIHYDROKAWAIN],IC50,[1],60 mg/L
same,IC50 at 48 h,[2],175 mg/L
COC1=CC(=O)O[C@@H](CCc2ccc3c(c2)OCO3)C1 [DIHYDROMETHYSTICIN],IC50,[1],20 mg/L
same,IC50 at 48 h,[2],313 mg/L
COc1ccc(/C=C/C(=O)c2c(O)cc(OC)cc2OC)cc1 [FLAVOKAWAIN A],IC50,[1],11.6 mg/L
same,IC50 at 48 h,[2],13.8 mg/L
COc1cc(O)c(C(=O)/C=C/c2ccccc2)c(OC)c1 [FLAVOKAWAIN B],IC50,[1],8 mg/L
same,IC50 at 48 h,[2],6.6 mg/L
COc1cc(O)c(C(=O)/C=C/c2ccc(O)cc2)c(OC)c1 [FLAVOKAWAIN C],IC50,[1],8.1 mg/L
same,IC50 at 48 h,[2],9.8 mg/L
COC1=CC(=O)O[C@@H](/C=C/c2ccccc2)C1 [KAVAIN],IC50,[1],32 mg/L
same,IC50 at 48 h,[2],166 mg/L
COC1=CC(=O)O[C@@H](/C=C/c2ccc3c(c2)OCO3)C1 [METHYSTICIN],IC50,[1],0.19 mg/L
same,Activity,HL-60,Non-toxic
same,inhibition,A549 [3],Active
same,inhibition,A549 [4],Active
same,inhibition,A549 [5],Active
same,inhibition,A549 [6],Active
same,Activity,CCRF-CEM,Non-toxic
same,IC50 at 48 h,[2],392 mg/L
same,Activity,A549 [7],Non-toxic
